Results: US7323447B2, “Hepatitis C virus inhibitors” (Bristol-Myers Squibb Company, priority 2005, dated 2008)
pEC50, pIC50: −log10 of the molar value. Read-outs that look alike come from different tables or passages of the source.

How the values were obtained:
[1] = target: T1, HCV NS3/4A protease complex (BMS strain) (UniProt P27958); assay: FRET peptide assay to monitor HCV NS3/4A proteolytic activity, BMS strain; type: biochemical, Hepatitis C virus (genotype 1a); details: read-out: IC50 Range; HCV NS3/4A enzyme assay; Table 1
T1 construct: other: HCV NS3/4A enzyme assay; said of H77 and J4L6S; fused on or other part: Three-lysine solubilising tail at the NS4A C-terminus and a His tag from pET21b (Ni-NTA purification), for the H77 and J4L6S constructs
T1 sequence (P27958 1027-1657, one chain of several): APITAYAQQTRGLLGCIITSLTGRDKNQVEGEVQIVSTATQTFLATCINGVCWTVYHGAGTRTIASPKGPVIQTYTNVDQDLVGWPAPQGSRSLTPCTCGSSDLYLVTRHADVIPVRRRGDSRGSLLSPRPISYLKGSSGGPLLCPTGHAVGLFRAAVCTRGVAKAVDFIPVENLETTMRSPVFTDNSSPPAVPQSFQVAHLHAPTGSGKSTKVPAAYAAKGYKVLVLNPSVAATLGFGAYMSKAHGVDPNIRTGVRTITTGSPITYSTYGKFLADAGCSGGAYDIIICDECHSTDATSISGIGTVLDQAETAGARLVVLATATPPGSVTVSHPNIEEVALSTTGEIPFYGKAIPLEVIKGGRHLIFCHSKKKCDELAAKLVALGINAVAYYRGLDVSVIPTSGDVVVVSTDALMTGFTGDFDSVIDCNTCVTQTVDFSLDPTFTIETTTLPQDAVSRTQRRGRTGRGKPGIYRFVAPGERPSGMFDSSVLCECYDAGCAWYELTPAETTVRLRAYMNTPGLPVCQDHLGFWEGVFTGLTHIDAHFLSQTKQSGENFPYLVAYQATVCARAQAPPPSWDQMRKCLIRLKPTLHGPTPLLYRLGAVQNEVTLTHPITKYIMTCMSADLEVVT
Source text: HCV NS3 protease complexes, derived from the BMS strain, H77 strain or J4L6S strain, were generated, as described below. These purified recombinant proteins were generated for use in a homogeneous assay (see below) to provide an indication of how effective compounds of the present disclosure would be in inhibiting HCV NS3 proteolytic activity.
Serum from an HCV-infected patient was obtained from Dr. T. Wright, San Francisco Hospital. An engineered full-length cDNA (compliment deoxyribonucleic acid) template of the HCV genome (BMS strain) was constructed from DNA fragments obtained by reverse transcription-PCR (RT-PCR) of serum RNA (ribonucleic acid) and using primers selected on the basis of homology between other genotype 1a strains. From the determination of the entire genome sequence, a genotype 1a was assigned to the HCV isolate according to the classification of Simmonds et al. (See P Simmonds, K A Rose, S Graham, S W Chan, F McOmish, B C Dow, E A Follett, P L Yap and […] Marsden, J. Clin. Microbiol., 31(6), 1493-1503 (1993)). […] The infectious clones, H77 (1a genotype) and J4L6S (1b genotype) were obtained from R. Purcell (NIH) and the sequences are published in Genbank (AAB67036, see Yanagi, M., Purcell, R. H., Emerson, S. U. and Bukh, J. Proc. Natl. Acad. Sci. U.S.A. 94(16), 8738-8743 (1997); AF054247, see Yanagi, M., St Claire, M., Shapiro, M., Emerson, S. U., Purcell, R. H. and Bukh, J, Virology 244 (1), 161-172. (1998)).
NS3/4A protease complex-containing fractions were pooled and loaded on a desalting column Superdex-S200 pre-equilibrated with buffer D (25 mM HEPES, pH 7.5, 20% glycerol, 300 mM NaCl, 0.2% Triton X-100, 10 mM βME). Sample was loaded at a flow rate of 1 mL/min. NS3/4A protease complex-containing fractions were pooled and concentrated to approximately 0.5 mg/ml. The purity of the NS3/4A protease complexes, derived from the BMS, H77 and J4L6S strains, were judged to be greater than 90% by SDS-PAGE and mass spectrometry analyses. The enzyme was stored at −80° C., thawed on ice and diluted prior to use in assay buffer.
The purpose of this in vitro assay was to measure the inhibition of HCV NS3 protease complexes, derived from the BMS strain, H77 strain or J4L6S strain, as described above, by compounds of the present disclosure. This assay provides an indication of how effective compounds of the present disclosure would be in inhibiting HCV NS3 proteolytic activity.
In order to monitor HCV NS3/4A protease activity, an NS3/4A peptide substrate was used. The substrate was RET S1 (Resonance Energy Transfer Depsipeptide Substrate; AnaSpec, Inc. cat # 22991) (FRET peptide), described by Taliani et al. in Anal. Biochem. 240(2):60-67 (1996). The sequence of this peptide is loosely based on the NS4A/NS4B natural cleavage site for the HCV NS3 protease except there is an ester linkage rather than an amide bond at the cleavage site. The peptide also contains a fluorescence donor, EDANS, near one end of the peptide and an acceptor, DABCYL, near the other end. The fluorescence of the peptide is quenched by […] resonance energy transfer (RET) between the donor and the acceptor, but as the NS3 protease cleaves the peptide the products are released from RET quenching and the fluorescence of the donor becomes apparent.
The peptide substrate was incubated with one of the three recombinant NS3/4A protease complexes, in the absence or presence of a compound of the present disclosure. The inhibitory effects of a compound were determined by monitoring the formation of fluorescent reaction product in real time using a Cytofluor Series 4000.
Assay buffer: 50 mM HEPES, pH 7.5; 0.15 M NaCl; 0.1% Triton; 15% Glycerol; 10 mM βME. Substrate: 2 μM final concentration (from a 2 mM stock solution in DMSO stored at −20° C.). HCV NS3/4A protease type 1a (1b), 2-3 nM final concentration (from a 5 μM stock solution in 25 mM HEPES, pH 7.5, 20% glycerol, 300 mM NaCl, 0.2% Triton-X100, 10 mM βME). […]

[2] = system: HCV replicon in HUH-7 cells; assay: HCV replicon FRET assay; type: cell-based, Hepatitis C virus (strain 1b); details: Table 1
Source text: An HCV replicon whole cell system was established as described by Lohmann V, Korner F, Koch J, Herian U, Theilmann L, Bartenschlager R., Science 285(5424): 110-3 (1999). This system enabled us to evaluate the effects of our HCV Protease compounds on HCV RNA replication. Briefly, using the HCV strain 1b sequence described in the Lohmann paper (Assession number: AJ238799), an HCV cDNA was synthesized by Operon Technologies, Inc. (Alameda, Calif.), and the full-length replicon was then assembled in plasmid pGem9zf(+) (Promega, Madison, Wis.) using standard molecular biology techniques. The replicon consists of (i) the HCV 5′ UTR fused to the first 12 amino acids of the capsid protein, (ii) the neomycin phosphotransferase gene (neo), (iii) the IRES from encephalomyocarditis virus (EMCV), and (iv) HCV NS3 to NS5B genes and the HCV 3′ UTR. Plasmid DNAs were linearized with ScaI and RNA transcripts were synthesized in vitro using the T7 MegaScript transcription kit (Ambion, Austin, Tex.) according to manufacturer's directions. In vitro transcripts of the cDNA were transfected into the human hepatoma cell line, HUH-7. […] Resulting cell lines were characterized for positive and negative strand RNA production and protein production over time.
The HCV replicon FRET assay was developed to monitor the inhibitory effects of compounds described in the disclosure on HCV viral replication. HUH-7 cells, constitutively expressing the HCV replicon, were grown in Dulbecco's Modified Eagle Media (DMEM) (Gibco-BRL) containing 10% Fetal calf serum (FCS) (Sigma) and 1 mg/ml G418 (Gibco-BRL). Cells were seeded the night before (1.5×10^4 cells/well) in 96-well tissue-culture sterile plates. Compound and no compound controls were prepared in DMEM containing 4% FCS, 1:100 Penicillin/Streptomysin (Gibco-BRL), 1:100 L-glutamine and 5% DMSO in the dilution plate (0.5% DMSO final concentration in the assay). Compound/DMSO mixes were added to the cells and incubated for 4 days at 37° C. After 4 days, cells were first assessed for cytotoxicity using alamar Blue (Trek Diagnotstic Systems) for a CC50 reading. The toxicity of compound (CC50) was determined by adding 1/10th volume of alamarBlue to the media incubating the cells. After 4 h, the fluorescence signal from each well was read, with an excitation wavelength at 530 nm and an emission wavelength of 580 nm, using the Cytofluor Series 4000 (Perspective Biosystems). Plates were then rinsed thoroughly with Phosphate-Buffered Saline (PBS) (3 times 150 μl). The cells were lysed with 25 μl of a lysis assay reagent containing an HCV protease substrate (5× cell Luciferase cell culture lysis reagent (Promega #E153A) diluted to 1× with distilled water, NaCl added to 150 mM final, the FRET peptide substrate (as described for the enzyme assay above) diluted to 10 μM final from a 2 mM stock in 100% DMSO. The plate was then placed into the Cytofluor 4000 instrument which had been set to 340 nm excitation/490 nm emissions, automatic mode for 21 cycles and the plate read in a kinetic mode. EC50 determinations were carried out as described for the IC50 determinations.

[3] = Hepatitis C virus, Huh-7, read-out: EC50 Range, HCV replicon cell assay
[4] = read-out: EC50 Range, HCV replicon cell assay

C=C[C@@H]1C[C@]1(NC(=O)[C@@H]1C[C@@H](Oc2cc(-c3ccccc3)nc3cc(OC)ccc23)CN1C(=O)[C@@H](O)C(C)C)C(=O)NS(=O)(=O)C1CC1 (stereo in doubt) [Example 4,Compound 5] gave a pIC50 [1] of over 7.00 and a pEC50 [2, 3] of 5.30 to 6.30.
In the case of C=C[C@@H]1C[C@]1(NC(=O)[C@@H]1C[C@@H](Oc2nccc3cc(OC)ccc23)CN1C(=O)[C@@H](O)C(C)C)C(=O)NS(=O)(=O)C1CC1 (stereo in doubt) [Example 52Compound 52], the pIC50 [1] was 6.00 to 7.00 and the pEC50 [2, 4] was under 5.30.
C=C[C@@H]1C[C@]1(NC(=O)[C@@H]1C[C@@H](Oc2nccc3cc(OC)ccc23)CN1C(=O)[C@@H](OC(=O)NC1CCCC1)C(C)C)C(=O)NS(=O)(=O)C1CC1 (stereo in doubt) [Example 53Compound 53] gave a pIC50 [1] of under 6.00 and a pEC50 [2, 4] of under 5.30.
C=C[C@@H]1C[C@]1(NC(=O)[C@@H]1C[C@@H](Oc2cc(-c3ccccc3)nc3cc(OC)ccc23)CN1C(=O)[C@@H](O)c1ccccc1)C(=O)NS(=O)(=O)C1CC1 [Example 4,Compound 1] showed a pIC50 [1] of 6.00 to 7.00 and a pEC50 [2, 3] of under 5.30.
In the case of C=C[C@@H]1C[C@]1(NC(=O)[C@@H]1C[C@@H](Oc2cc(-c3ccccc3)nc3cc(OC)ccc23)CN1C(=O)C(O)CC(C)C)C(=O)NS(=O)(=O)C1CC1 (some centres unmarked) [Example 4,Compound 2], the pIC50 [1] was 6.00 to 7.00 and the pEC50 [2, 3] was 5.30 to 6.30.
C=C[C@@H]1C[C@]1(NC(=O)[C@@H]1C[C@@H](Oc2cc(-c3ccccc3)nc3cc(OC)ccc23)CN1C(=O)[C@@H](O)Cc1c[nH]cn1)C(=O)NS(=O)(=O)C1CC1 [Example 4,Compound 3] showed a pIC50 [1] of 6.00 to 7.00 and a pEC50 [2, 3] of under 5.30.
Work on C=C[C@@H]1C[C@]1(NC(=O)[C@@H]1C[C@@H](Oc2cc(-c3ccccc3)nc3cc(OC)ccc23)CN1C(=O)[C@@H](O)C1CCCCC1)C(=O)NS(=O)(=O)C1CC1 [Example 4,Compound 4] yielded a pIC50 [1] of over 7.00 and a pEC50 [2, 3] of 5.30 to 6.30.
In the case of C=C[C@@H]1C[C@]1(NC(=O)[C@@H]1C[C@@H](Oc2cc(-c3ccccc3)nc3cc(OC)ccc23)CN1C(=O)[C@@H](O)CC(C)C)C(=O)NS(=O)(=O)C1CC1 [Example 4,Compound 6], the pIC50 [1] was over 7.00 and the pEC50 [2, 3] was 5.30 to 6.30.
Work on C=C[C@@H]1C[C@]1(NC(=O)C1CC(Oc2cc(-c3ccccc3)nc3cc(OC)ccc23)CN1C(=O)[C@@H](O)C(C)(C)C)C(=O)NS(=O)(=O)C1CC1 (some centres unmarked) [Example 4,Compound 8] yielded a pIC50 [1] of over 7.00 and a pEC50 [2, 3] of 5.30 to 6.30.
Compound C=C[C@@H]1C[C@]1(NC(=O)[C@@H]1C[C@@H](Oc2cc(-c3ccccc3)nc3cc(OC)ccc23)CN1C(=O)[C@@H](OC(=O)NC(C)(C)C)C(C)(C)C)C(=O)NS(=O)(=O)C1CC1 [Example 5,Compound 1] has a pIC50 [1] of over 7.00 and a pEC50 [2, 3] of over 6.30.
Compound C=C[C@@H]1C[C@]1(NC(=O)[C@@H]1C[C@@H](Oc2cc(-c3ccccc3)nc3cc(OC)ccc23)CN1C(=O)[C@@H](OC(=O)NC(C)C)C(C)(C)C)C(=O)NS(=O)(=O)C1CC1 [Example 5,Compound 2] has a pIC50 [1] of over 7.00 and a pEC50 [2, 3] of over 6.30.
For C=C[C@@H]1C[C@]1(NC(=O)[C@@H]1C[C@@H](Oc2cc(-c3ccccc3)nc3cc(OC)ccc23)CN1C(=O)[C@@H](OC(=O)NC1CCCC1)C(C)(C)C)C(=O)NS(=O)(=O)C1CC1 [Example 5,Compound 3], the pIC50 [1] was over 7.00 and the pEC50 [2, 3] was over 6.30.
Compound C=C[C@@H]1C[C@]1(NC(=O)[C@@H]1C[C@@H](Oc2cc(-c3ccccc3)nc3cc(OC)ccc23)CN1C(=O)[C@@H](OC(=O)Nc1ccccc1)C(C)(C)C)C(=O)NS(=O)(=O)C1CC1 [Example 5,Compound 4] has a pIC50 [1] of over 7.00 and a pEC50 [2, 3] of over 6.30.
C=C[C@@H]1C[C@]1(NC(=O)[C@@H]1C[C@@H](Oc2cc(-c3ccccc3)nc3cc(OC)ccc23)CN1C(=O)[C@@H](OC(=O)Nc1ccc(OC)cc1)C(C)(C)C)C(=O)NS(=O)(=O)C1CC1 [Example 5,Compound 5] showed a pIC50 [1] of 6.00 to 7.00 and a pEC50 [2, 3] of 5.30 to 6.30.
C=C[C@@H]1C[C@]1(NC(=O)[C@@H]1C[C@@H](Oc2cc(-c3ccccc3)nc3cc(OC)ccc23)CN1C(=O)[C@@H](OC(=O)Nc1ccc(OC)cc1C)C(C)(C)C)C(=O)NS(=O)(=O)C1CC1 [Example 5,Compound 6] gave a pIC50 [1] of 6.00 to 7.00 and a pEC50 [2, 3] of 5.30 to 6.30.
C=C[C@@H]1C[C@]1(NC(=O)[C@@H]1C[C@@H](Oc2cc(-c3ccccc3)nc3cc(OC)ccc23)CN1C(=O)C1CC1)C(=O)NS(=O)(=O)C1CC1 [Example 19] gave a pIC50 [1] of 6.00 to 7.00.
Work on C=CCCCCCC(O)C(=O)N1C[C@H](Oc2nc(-c3ccccc3)cc3cc(OC)ccc23)CC1C(=O)N[C@]1(C(=O)NS(=O)(=O)C2CC2)CC1C=C (some centres unmarked) [Example 21] yielded a pIC50 [1] of 6.00 to 7.00.
